In data set [1] the target is T1, cytochrome P450 OleT (Jeotgalicoccus sp. ATCC 8456, UniProt E9NSU2). The note with it: for maximal high-spin conversion: UV-vis titration, low- to high-spin conversion.
In data set [2] the target is T1, cytochrome P450 OleT. Type of data set: biochemical. The note with it: for % metabolized: 5 μM OleT, 500 μM fatty acid; for % metabolized / product distribution (%) alcohols: slow H2O2 addition; for product distribution (%) 1-alkene: determined from subtraction of product alcohols from the total FA metabolized; for alcohol regiospecificity α: share of alcohols hydroxylated at Cα; for alcohol regiospecificity β: share of alcohols hydroxylated at Cβ; for product distribution (%) alcohols: share of total product.

In data set [3] the test system is cytochrome P450 OleT. Type of data set: biochemical, Jeotgalicoccus sp. ATCC 8456.
The target in data set [4] is T1, cytochrome P450 OleT. The data set is described as follows: Stopped flow transient kinetics of OleT:fatty acid complexes with H2O2. Type of data set: biochemical.
For data set [5], the target named is T1, cytochrome P450 OleT. Type of data set: biochemical.
Data set [6] concerns the target T1, cytochrome P450 OleT. Nature of the data set: Guaiacol oxidation to tetraguaiacol by fatty acid-activated OleT. Type of data set: biochemical. The note with it: DA-d19 compared with protiated DA as decoy.
Data set [7] deals with T1, cytochrome P450 OleT. The following applies: read-out: dissociation constant reported for EA; reported value; ref [2],[13]; cited from earlier work.
The target in data set [8] is T1, cytochrome P450 OleT. The following applies: in vitro; ref [2]–[4]; cited from earlier work.
The target in data set [9] is T1, cytochrome P450 OleT. The following applies: ref [29], cited from earlier work.
The mark [10] stands for this setting: 5 μM OleT, 200 mM KPi pH 7.5, 200 mM NaCl, absorbance changes at 392 and 417 nm.
Where [11] appears, read: in the presence of norcarane, 10 mM H2O2, 440 nm, 4 °C.
Setting [12] is: in the absence of norcarane, 10 mM H2O2, 440 nm, 4 °C.

“And” between values parts separate entries of the source, which are not always exact repeats. Identical values can stand only once. Like-named read-outs stand apart in the source and are kept apart here. Marks after values point to notes of the source that are not given here.

On cytochrome P450 OleT [1] (setting [10]), `CCCCCC(=O)O` [C6:0] had a Kd of 164 ± 15 µM. Also, the maximal high-spin conversion at cytochrome P450 OleT [1] worked out at 19%.

With `CCCCCCCC(=O)O` [C8:0], at cytochrome P450 OleT [2], the “% metabolized” value turned out to be 100%, the “product distribution (%) 1-alkene” value is listed as 88.4 ± 0.4 ^b %, the “alcohol regiospecificity α” value was 11.3 ± 2.3% α and the “alcohol regiospecificity β” value was found to be 89.0 ± 5.3% β. For the same compound, on cytochrome P450 OleT [2], the “product distribution (%) alcohols” value was found to be 11.6 ± 0.8%. This compound gave a Kd on cytochrome P450 OleT [1] (setting [10]) of 134 ± 11 µM. On cytochrome P450 OleT [1], this compound showed a maximal high-spin conversion of 25%.

In the case of `CCCCCCCCCC(=O)O` [C10:0, decanoic acid], on cytochrome P450 OleT [2], the “% metabolized” value came to 100%, the “product distribution (%) 1-alkene” value is on record as 90.0 ± 0.8 ^b %, the “alcohol regiospecificity β” value stood at 100% β and the “product distribution (%) alcohols” value is 10.0 ± 0.8%. On cytochrome P450 OleT [1], this compound came in with a Kd of 25 ± 8 µM and a maximal high-spin conversion of 36%.

Regarding `CCCCCCCCCCCC(=O)O` [C12:0, lauric acid], at cytochrome P450 OleT [2], the “% metabolized” value was determined as 98.3 ± 0.2%, the “alcohol regiospecificity α” value came to 7.0 ± 1.3% α and the “alcohol regiospecificity β” value is listed as 71.5 ± 15.5% β. Also, the “alcohol regiospecificity α” value on cytochrome P450 OleT [2] (listed as LA) is listed as 7%. The “alcohol regiospecificity γ” value on cytochrome P450 OleT [2] (share of alcohols hydroxylated at Cγ) amounted to 21.5 ± 4.4% γ. Moreover, the “product distribution (%) 1-alkene” value in the data set with cytochrome P450 OleT [3] (determined from direct quantitation) was 61.4 ± 7.6 ^a %. Also, the “product distribution (%) alcohols” value with cytochrome P450 OleT [3] (slow H2O2 addition, share of total product) is given as 38.6 ± 7.6%. Also, on cytochrome P450 OleT [1], the Kd turned out to be 2.8 ± 0.4 µM and the maximal high-spin conversion is 61%.

On to `[2H]C([2H])([2H])C([2H])([2H])C([2H])([2H])C([2H])([2H])C([2H])([2H])C([2H])([2H])C([2H])([2H])C([2H])([2H])C([2H])([2H])C(=O)O` [DA-d19, perdeuterated decanoic acid], for which the “Ole-I decay rate constant” value at cytochrome P450 OleT [4] (asymptote of RRT1 vs H2O2 plot, 4 °C) is on record as ~ 60 s^−1. Further, the “Ole-II decay rate constant” value on cytochrome P450 OleT [4] (independent of H2O2, 4 °C) is about 10 s⁻¹. At cytochrome P450 OleT [5] (comparison of decoy fatty acids), the “product yields for radical clock substrates by decoy fatty acid” value is “highest”. Further, the “improvement of guaiacol oxidation rate” value on cytochrome P450 OleT [6] was “approximately 5 fold”.

Turning to `CCCCCCCCCCCCCCCCCCCC(=O)O` [EA, eicosanoic acid], at cytochrome P450 OleT [7], the Kd is under 1 µM. The “chemoselectivity for 1-nonadecene production” value at cytochrome P450 OleT [8] was at least 95%. Also, at cytochrome P450 OleT [9] (at 5 °C, decarboxylation of EA), the Ole-II decay was ~ 10 s^−1. Moreover, the “substrate 2H KIE (kH/kD) for the decay of Ole-I” value at cytochrome P450 OleT [9] is reported as over 8.

Consider `[2H]C([2H])([2H])C([2H])([2H])C([2H])([2H])C([2H])([2H])C([2H])([2H])C([2H])([2H])C([2H])([2H])C([2H])([2H])C([2H])([2H])C([2H])([2H])C([2H])([2H])C([2H])([2H])C([2H])([2H])C([2H])([2H])C([2H])([2H])C([2H])([2H])C([2H])([2H])C([2H])([2H])C([2H])([2H])C(=O)O` [EA-d39, perdeuterated eicosanoic acid], for which, on cytochrome P450 OleT [4] (setting [11]), the “Ole-II decay rate constant (RRT2)” value is 10 ± 2 s⁻¹ and the “Ole-II formation (Ole-I decay) rate constant (RRT1)” value was found to be 83 ± 3 s⁻¹.

In the case of `[2H]C([2H])([2H])C([2H])([2H])C([2H])([2H])C([2H])([2H])C([2H])([2H])C([2H])([2H])C([2H])([2H])C([2H])([2H])C([2H])([2H])C([2H])([2H])C([2H])([2H])C(=O)O` [LA-d23], on cytochrome P450 OleT [4] (setting [12]), the “Ole-II decay rate constant (RRT2)” value amounted to 10.4 ± 0.5 s⁻¹ and the “Ole-II formation (RRT1)” value was found to be 105 ± 10 s⁻¹. At cytochrome P450 OleT [4] (setting [11]), the “Ole-II decay rate constant (RRT2)” value is 12.5 ± 0.6 s⁻¹ and the “Ole-II formation (Ole-I decay) rate constant (RRT1)” value worked out at 66 ± 3 s⁻¹.

`CC1CC1c1ccccc1` (centres unmarked) [methylcyclopropane]: on cytochrome P450 OleT [5] (in the presence of DA-d19), the “product yield (%) ring-closed” value is 41.9% and 40.1%; the “product yield (%) ring-opened” value is 58.1% and 59.9%. The radical lifetime on cytochrome P450 OleT [5] (per trial, from product ratio and krearr = 3 × 10^11 s−1) was determined as 2.4 ps.

In the case of `C1CCC2CC2C1` (centres unmarked) [norcarane, bicyclo[4.1.0]heptane], the radical lifetime on cytochrome P450 OleT [5] (from averaged ratio of rearranged products to norcaranol (G + E)) is ~ 35 ps; at cytochrome P450 OleT [5] (per trial, from product ratio and krearr = 2 × 10^8 s−1), 42 ps and 29 ps. For the same compound, the “product yield (%) F” value at cytochrome P450 OleT [5] (in the presence of DA-d19) is 1.9%. Also, at cytochrome P450 OleT [5] (in the presence of DA-d19), the “product yield (%) I” value was determined as 0.55%. The “product yield (%) C” value at cytochrome P450 OleT [5] (in the presence of DA-d19, 4-hydroxy-2-norcarene) was determined as 3.8%. Moreover, the “product yield (%) cation” value at cytochrome P450 OleT [5] (in the presence of DA-d19, cation-rearranged product 3-cycloheptenol (A)) was 2.6% and 1.4%. Also, the “product yield (%) E” value on cytochrome P450 OleT [5] (in the presence of DA-d19, endo-2-norcaranol) is 51.5% and 47.6%. The “product yield (%) G” value at cytochrome P450 OleT [5] (in the presence of DA-d19, exo-2-norcaranol) is 38.9% and 33.4%. In addition, the “product yield (%) radical” value on cytochrome P450 OleT [5] (in the presence of DA-d19, radical-rearranged product 3-hydroxymethylcyclohexene (D)) is 0.75% and 0.47%.
